In assay [1] the target is Leukotriene B4 receptor 1 (Homo sapiens, UniProt Q15722). Nature of the assay: Compound was tested for its antagonist activity in a LTB4 human neutrophil receptor binding assay using the natural ligand itself.
The species named for another assay is Homo sapiens. The experiment in a line: Compound was tested for its ability to inhibit human neutrophil degranulation induced by LTB4. It counts as functional.

As usually defined, the IC50 is the concentration at which inhibition is half-maximal.

Structures are written as SMILES.

Leukotriene B4 receptor 1, sequence (Q15722 whole entry): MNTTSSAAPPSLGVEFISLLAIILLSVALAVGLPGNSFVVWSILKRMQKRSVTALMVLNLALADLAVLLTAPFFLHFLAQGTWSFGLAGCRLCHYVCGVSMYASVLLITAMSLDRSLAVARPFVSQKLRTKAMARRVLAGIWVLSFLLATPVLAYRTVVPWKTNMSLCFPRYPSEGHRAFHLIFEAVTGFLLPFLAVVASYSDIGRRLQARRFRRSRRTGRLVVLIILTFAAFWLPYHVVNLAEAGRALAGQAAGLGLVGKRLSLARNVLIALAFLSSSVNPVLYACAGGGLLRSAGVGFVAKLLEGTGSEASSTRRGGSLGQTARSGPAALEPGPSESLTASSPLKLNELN

Take `CCCCC/C=C\C[C@@H](C)/C=C/C=C/C=C/[C@@H](O)CCCC(=O)O`: the values for the IC50 (in assay [1]; in the assay filed under Homo sapiens) were 3.8 µM and 3.4 µM, respectively.

For the origin of these results see ChEMBL document CHEMBL1125981, “Enantioselective total synthesis and pharmacologic profile of 12-deoxy-12(S)-methyl leukotriene B4” (Bioorg Med Chem Lett, 1991).
